From ChEMBL document CHEMBL4004849, “Tetrazolylmethyl quinolines: Design, docking studies, synthesis, anticancer and antifungal analyses” (2017)
Values after ≈ are worked out from the molar mass of the structure shown. Active and inactive are the calls of the source. No cut-off for these calls is given here.

Columns and labels:
Format in all cases: functional
LOX IMVI = assay: Growth inhibition of human LOXIMVI cells at 10^-5 M incubated for 48 hrs by sulforhodamine B assay relative to control
NCI-H460 = assay: Growth inhibition of human NCI-H460 cells at 10^-5 M incubated for 48 hrs by sulforhodamine B assay relative to control
SK-MEL-5 = assay: Growth inhibition of human SK-MEL-5 cells at 10^-5 M incubated for 48 hrs by sulforhodamine B assay relative to control
NCI-H23 = assay: Growth inhibition of human NCI-H23 cells at 10^-5 M incubated for 48 hrs by sulforhodamine B assay relative to control
RXF 393 = assay: Growth inhibition of human RXF393 cells at 10^-5 M incubated for 48 hrs by sulforhodamine B assay relative to control
SN12C = assay: Growth inhibition of human SN12C cells at 10^-5 M incubated for 48 hrs by sulforhodamine B assay relative to control
BT-549 = assay: Growth inhibition of human BT549 cells at 10^-5 M incubated for 48 hrs by sulforhodamine B assay relative to control
KM12 = assay: Growth inhibition of human KM12 cells at 10^-5 M incubated for 48 hrs by sulforhodamine B assay relative to control
TK-10 = assay: Growth inhibition of human TK10 cells at 10^-5 M incubated for 48 hrs by sulforhodamine B assay relative to control
UACC-257 = assay: Growth inhibition of human UACC257 cells at 10^-5 M incubated for 48 hrs by sulforhodamine B assay relative to control
SF-539 = assay: Growth inhibition of human SF539 cells at 10^-5 M incubated for 48 hrs by sulforhodamine B assay relative to control
SF-295 = assay: Growth inhibition of human SF295 cells at 10^-5 M incubated for 48 hrs by sulforhodamine B assay relative to control
HCC 2998 = assay: Growth inhibition of human HCC2998 cells at 10^-5 M incubated for 48 hrs by sulforhodamine B assay relative to control
Aspergillus fumigatus = assay: Antifungal activity against Aspergillus fumigatus after 24 hrs by serial dilution method
SK-OV-3 = assay: Growth inhibition of human SKOV3 cells at 10^-5 M incubated for 48 hrs by sulforhodamine B assay relative to control
U-251 = assay: Growth inhibition of human U251 cells at 10^-5 M incubated for 48 hrs by sulforhodamine B assay relative to control
MDA-MB-231 = assay: Growth inhibition of human MDA-MB-231/ATCC cells at 10^-5 M incubated for 48 hrs by sulforhodamine B assay relative to control
OVCAR-8 = assay: Growth inhibition of human OVCAR8 cells at 10^-5 M incubated for 48 hrs by sulforhodamine B assay relative to control
SNB-75 = assay: Growth inhibition of human SNB75 cells at 10^-5 M incubated for 48 hrs by sulforhodamine B assay relative to control
Malme-3M = assay: Growth inhibition of human MALME-3M cells at 10^-5 M incubated for 48 hrs by sulforhodamine B assay relative to control
M14 = assay: Growth inhibition of human M14 cells at 10^-5 M incubated for 48 hrs by sulforhodamine B assay relative to control
SF-268 = assay: Growth inhibition of human SF268 cells at 10^-5 M incubated for 48 hrs by sulforhodamine B assay relative to control
Candida albicans [1] = assay: Antifungal activity against Candida albicans after 24 hrs by serial dilution method
ACHN = assay: Growth inhibition of human ACHN cells at 10^-5 M incubated for 48 hrs by sulforhodamine B assay relative to control
EKVX = assay: Growth inhibition of human EKVX cells at 10^-5 M incubated for 48 hrs by sulforhodamine B assay relative to control
SK-MEL-2 = assay: Growth inhibition of human SK-MEL-2 cells at 10^-5 M incubated for 48 hrs by sulforhodamine B assay relative to control
HCT-15 = assay: Growth inhibition of human HCT15 cells at 10^-5 M incubated for 48 hrs by sulforhodamine B assay relative to control
CAKI-1 = assay: Growth inhibition of human Caki1 cells at 10^-5 M incubated for 48 hrs by sulforhodamine B assay relative to control
UO-31 = assay: Growth inhibition of human UO31 cells at 10^-5 M incubated for 48 hrs by sulforhodamine B assay relative to control
Candida albicans [2] = assay: Antifungal activity against Candida albicans at 100 ug/ml by disc diffusion method; settings: read-out: IZ
SNB-19 = assay: Growth inhibition of human SNB19 cells at 10^-5 M incubated for 48 hrs by sulforhodamine B assay relative to control
T47D = assay: Growth inhibition of human T47D cells at 10^-5 M incubated for 48 hrs by sulforhodamine B assay relative to control
SR = assay: Growth inhibition of human SR cells at 10^-5 M incubated for 48 hrs by sulforhodamine B assay relative to control
NCI-H226 = assay: Growth inhibition of human NCI-H226 cells at 10^-5 M incubated for 48 hrs by sulforhodamine B assay relative to control
HL-60(TB) = assay: Growth inhibition of human HL-60(TB) cells at 10^-5 M incubated for 48 hrs by sulforhodamine B assay relative to control
A549 = assay: Growth inhibition of human A549/ATCC cells at 10^-5 M incubated for 48 hrs by sulforhodamine B assay relative to control
UACC-62 = assay: Growth inhibition of human UACC62 cells at 10^-5 M incubated for 48 hrs by sulforhodamine B assay relative to control
HCT-116 = assay: Growth inhibition of human HCT116 cells at 10^-5 M incubated for 48 hrs by sulforhodamine B assay relative to control
IGROV-1 = assay: Growth inhibition of human IGROV1 cells at 10^-5 M incubated for 48 hrs by sulforhodamine B assay relative to control
NCI-H522 = assay: Growth inhibition of human NCI-H522 cells at 10^-5 M incubated for 48 hrs by sulforhodamine B assay relative to control
MDA-MB-435 = assay: Growth inhibition of human MDA-MB-435 cells at 10^-5 M incubated for 48 hrs by sulforhodamine B assay relative to control
MOLT-4 = assay: Growth inhibition of human MOLT4 cells at 10^-5 M incubated for 48 hrs by sulforhodamine B assay relative to control
COLO 205 = assay: Growth inhibition of human COLO205 cells at 10^-5 M incubated for 48 hrs by sulforhodamine B assay relative to control
SW-620 = assay: Growth inhibition of human SW620 cells at 10^-5 M incubated for 48 hrs by sulforhodamine B assay relative to control

SMILES: Cc1ccc2nc(Cl)c(Cn3nnc(CSc4ccccc4)n3)cc2c1
- growth inhibition (GI) (LOX IMVI): Active
- growth inhibition (GI) (NCI-H460): Active
- growth inhibition (GI) (SK-MEL-5): Active
- growth inhibition (GI) (NCI-H23): Active
- growth inhibition (GI) (RXF 393): Active
- growth inhibition (GI) (SN12C): Active
- growth inhibition (GI) (BT-549): Active
- growth inhibition (GI) (KM12): Active
- growth inhibition (GI) (TK-10): Active
- growth inhibition (GI) (UACC-257): Active
- growth inhibition (GI) (SF-539): Active
- growth inhibition (GI) (SF-295): Active
- growth inhibition (GI) (HCC 2998): Active
- MIC (Aspergillus fumigatus): 25 mg/L (≈ 65.5 µM)
- growth inhibition (GI) (SK-OV-3): Active
- growth inhibition (GI) (U-251): Active
- growth inhibition (GI) (MDA-MB-231): Active
- growth inhibition (GI) (OVCAR-8): Active
- growth inhibition (GI) (SNB-75): Active
- growth inhibition (GI) (Malme-3M): Active
- growth inhibition (GI) (M14): Active
- growth inhibition (GI) (SF-268): Active
- MIC (Candida albicans [1]): 10 mg/L (≈ 26.2 µM)
- growth inhibition (GI) (ACHN): Active
- growth inhibition (GI) (EKVX): Active
- growth inhibition (GI) (SK-MEL-2): Active
- growth inhibition (GI) (HCT-15): Active
- growth inhibition (GI) (CAKI-1): Active
- growth inhibition (GI) (UO-31): Active
- zone of inhibition at 100 µg/mL (Candida albicans [2]): 12 mm
- growth inhibition (GI) (SNB-19): Active
- growth inhibition (GI) (T47D): Active
- growth inhibition (GI) (SR): Active
- growth inhibition (GI) (NCI-H226): Active
- growth inhibition (GI) (HL-60(TB)): Active
- growth inhibition (GI) (A549): Active
- growth inhibition (GI) (UACC-62): Active
- growth inhibition (GI) (HCT-116): Active
- growth inhibition (GI) (IGROV-1): Active
- growth inhibition (GI) (NCI-H522): Active
- growth inhibition (GI) (MDA-MB-435): Active
- growth inhibition (GI) (MOLT-4): Active
- growth inhibition (GI) (COLO 205): Active
- growth inhibition (GI) (SW-620): Active

SMILES: Fc1ccc2nc(Cl)c(Cn3nnnc3Cc3ccccc3)cc2c1
- growth inhibition (GI) (LOX IMVI): Active
- growth inhibition (GI) (NCI-H460): Active
- growth inhibition (GI) (SK-MEL-5): Active
- growth inhibition (GI) (NCI-H23): Active
- growth inhibition (GI) (RXF 393): Active
- growth inhibition (GI) (SN12C): Active
- growth inhibition (GI) (BT-549): Active
- growth inhibition (GI) (KM12): Active
- growth inhibition (GI) (TK-10): Active
- growth inhibition (GI) (UACC-257): Active
- growth inhibition (GI) (SF-539): Active
- growth inhibition (GI) (SF-295): Active
- growth inhibition (GI) (HCC 2998): Active
- MIC (Aspergillus fumigatus): 10 mg/L (≈ 28.3 µM)
- growth inhibition (GI) (SK-OV-3): Active
- growth inhibition (GI) (U-251): Active
- growth inhibition (GI) (MDA-MB-231): Active
- growth inhibition (GI) (OVCAR-8): Active
- growth inhibition (GI) (SNB-75): Active
- growth inhibition (GI) (Malme-3M): Active
- growth inhibition (GI) (M14): Active
- growth inhibition (GI) (SF-268): Active
- MIC (Candida albicans [1]): 25 mg/L (≈ 70.7 µM)
- growth inhibition (GI) (ACHN): Active
- growth inhibition (GI) (EKVX): Active
- growth inhibition (GI) (SK-MEL-2): Active
- growth inhibition (GI) (HCT-15): Active
- growth inhibition (GI) (CAKI-1): Active
- growth inhibition (GI) (UO-31): Active
- zone of inhibition at 100 µg/mL (Candida albicans [2]): 13 mm
- growth inhibition (GI) (SNB-19): Active
- growth inhibition (GI) (T47D): Active
- growth inhibition (GI) (SR): Active
- growth inhibition (GI) (NCI-H226): Active
- growth inhibition (GI) (HL-60(TB)): Active
- growth inhibition (GI) (A549): Active
- growth inhibition (GI) (UACC-62): Active
- growth inhibition (GI) (HCT-116): Active
- growth inhibition (GI) (IGROV-1): Active
- growth inhibition (GI) (NCI-H522): Active
- growth inhibition (GI) (MDA-MB-435): Active
- growth inhibition (GI) (MOLT-4): Active
- growth inhibition (GI) (COLO 205): Active
- growth inhibition (GI) (SW-620): Active

SMILES: COc1ccc2nc(Cl)c(Cn3nnnc3Cc3ccccc3)cc2c1
- growth inhibition (GI) (LOX IMVI): Active
- growth inhibition (GI) (NCI-H460): Active
- growth inhibition (GI) (SK-MEL-5): Active
- growth inhibition (GI) (NCI-H23): Active
- growth inhibition (GI) (RXF 393): Active
- growth inhibition (GI) (SN12C): Active
- growth inhibition (GI) (BT-549): Active
- growth inhibition (GI) (KM12): Active
- growth inhibition (GI) (TK-10): Active
- growth inhibition (GI) (UACC-257): Active
- growth inhibition (GI) (SF-539): Active
- growth inhibition (GI) (SF-295): Active
- growth inhibition (GI) (HCC 2998): Active
- MIC (Aspergillus fumigatus): 25 mg/L (≈ 68.3 µM)
- growth inhibition (GI) (SK-OV-3): Active
- growth inhibition (GI) (U-251): Active
- growth inhibition (GI) (MDA-MB-231): Active
- growth inhibition (GI) (OVCAR-8): Active
- growth inhibition (GI) (SNB-75): Active
- growth inhibition (GI) (Malme-3M): Active
- growth inhibition (GI) (M14): Active
- growth inhibition (GI) (SF-268): Active
- MIC (Candida albicans [1]): 25 mg/L (≈ 68.3 µM)
- growth inhibition (GI) (ACHN): Active
- growth inhibition (GI) (EKVX): Active
- growth inhibition (GI) (SK-MEL-2): Active
- growth inhibition (GI) (HCT-15): Active
- growth inhibition (GI) (CAKI-1): Active
- growth inhibition (GI) (UO-31): Active
- zone of inhibition at 100 µg/mL (Candida albicans [2]): 15 mm
- growth inhibition (GI) (SNB-19): Active
- growth inhibition (GI) (T47D): Active
- growth inhibition (GI) (SR): Active
- growth inhibition (GI) (NCI-H226): Active
- growth inhibition (GI) (HL-60(TB)): Active
- growth inhibition (GI) (A549): Active
- growth inhibition (GI) (UACC-62): Active
- growth inhibition (GI) (HCT-116): Active
- growth inhibition (GI) (IGROV-1): Active
- growth inhibition (GI) (NCI-H522): Active
- growth inhibition (GI) (MDA-MB-435): Active
- growth inhibition (GI) (MOLT-4): Active
- growth inhibition (GI) (COLO 205): Active
- growth inhibition (GI) (SW-620): Active
